According to ChEMBL document CHEMBL1201862, “PubChem BioAssay data set” (2004):
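Growth conditions: 96-well plates. Treatment: test compound, 48 hours, 5 concentrations. Analysis: linear interpolation between bracketing concentrations; unreached endpoints set to highest concentration. GI50 is the concentration that inhibits growth by half.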 The source made the active and inactive calls. Cut-off read from the data, not from the text of the source: active = GI50 up to about 1.1 µM and inactive = higher.

Key:
Experiment in all cases: NCI-60 cell line screen, 48 h
PC-3 = tested on: PC-3
IGROV-1 = tested on: IGROV-1
HOP-62 = tested on: HOP-62
786-0 = tested on: 786-0
CCRF-CEM = tested on: CCRF-CEM
MDA-MB-231 = tested on: MDA-MB-231
HCC 2998 = tested on: HCC 2998
HOP-92 = tested on: HOP-92
SNB-75 = tested on: SNB-75
HCT-15 = tested on: HCT-15
OVCAR-3 = tested on: OVCAR-3
A498 = tested on: A498
NCI/ADR-RES = tested on: NCI/ADR-RES
KM12 = tested on: KM12
MDA-N = tested on: MDA-N
MCF7 = tested on: MCF7
M14 = tested on: M14
SK-MEL-5 = tested on: SK-MEL-5
CAKI-1 = tested on: CAKI-1

Row | Structure (SMILES) | GI50 (PC-3) | GI50 (IGROV-1) | GI50 (HOP-62) | GI50 (786-0) | GI50 (CCRF-CEM) | GI50 (MDA-MB-231) | GI50 (HCC 2998) | GI50 (HOP-92) | GI50 (SNB-75) | GI50 (HCT-15) [µM] | GI50 (OVCAR-3) | GI50 (A498) | GI50 (NCI/ADR-RES) | GI50 (KM12) | GI50 (MDA-N) | GI50 (MCF7) | GI50 (M14) | GI50 (SK-MEL-5) | GI50 (CAKI-1)
1 | C/C(Cc1ccc2c(c1)OCO2)=N\NC(=O)C(C)Sc1nnc(SC(C)C(=O)N/N=C(\C)Cc2ccc3c(c2)OCO3)s1 (stereo unspecified) | > 100 µM (inactive) | > 100 µM (inactive) | > 100 µM (inactive) | > 100 µM (inactive) | 66.2 µM (inactive) | 84.7 µM (inactive) | > 100 µM (inactive) | 61.1 µM (inactive) | 83.9 µM (inactive) | > 100 | > 100 µM (inactive) | 62.4 µM (inactive) | > 100 µM (inactive) | > 100 µM (inactive) | > 100 µM (inactive) | 24.1 µM (inactive) | > 100 µM (inactive) | 69.3 µM (inactive) | > 100 µM (inactive)
2 | COc1cc2c(cc1OCCCNC(=O)c1cc3ccccc3[nH]1)N=C[C@@H]1CCCN1C2=O | 0.358 µM (active) | 0.277 µM (active) | 0.326 µM (active) | 0.237 µM (active) | 0.193 µM (active) | 0.466 µM (active) | 0.664 µM (active) | 7.43 µM (inactive) | 0.263 µM (active) | 0.897 | 0.306 µM (active) | 0.0527 µM (active) | 2.04 µM (inactive) | 0.241 µM (active) | 0.254 µM (active) | 0.258 µM (active) | 0.305 µM (active) | 0.195 µM (active) | 0.296 µM (active)
3 | COc1ccc2nc3n(c2c1)C(c1c(F)cccc1F)SC3 (stereo unspecified) | 29.7 µM (inactive) | 40.1 µM (inactive) | 61.7 µM (inactive) | 39.6 µM (inactive) | 54.1 µM (inactive) | > 100 µM (inactive) | 78 µM (inactive) | 51.1 µM (inactive) | 74.6 µM (inactive) | 43.2 | 28.6 µM (inactive) | 95.3 µM (inactive) | 19.1 µM (inactive) | 40.2 µM (inactive) | 61.4 µM (inactive) | 32 µM (inactive) | > 100 µM (inactive) | 33.2 µM (inactive) | 94 µM (inactive)
4 | NS(=O)(=O)c1ccc(NCc2cccc3c(=O)c4ccc(Cl)cc4oc23)cc1 | 31 µM (inactive) | 20.2 µM (inactive) | 39.7 µM (inactive) | > 58.5 µM (inactive) | 4.75 µM (inactive) | 52 µM (inactive) | > 82.4 µM (inactive) | 12.6 µM (inactive) | 37.8 µM (inactive) | 11.5 | 54.8 µM (inactive) | > 75.3 µM (inactive) | 32.5 µM (inactive) | 21.4 µM (inactive) | 23.1 µM (inactive) | 8.34 µM (inactive) | 27.8 µM (inactive) | 59.4 µM (inactive) | 41 µM (inactive)
5 | Cc1cn(C2CC(n3cc(Cn4cc(Br)c(=O)[nH]c4=O)nn3)C(CO)O2)c(=O)[nH]c1=O (stereo unspecified) | > 100 µM (inactive) | 80 µM (inactive) | > 100 µM (inactive) | 93.1 µM (inactive) | 0.668 µM (active) | > 100 µM (inactive) | > 100 µM (inactive) | 20.4 µM (inactive) | 60.5 µM (inactive) | > 100 | > 100 µM (inactive) | > 100 µM (inactive) | 68.2 µM (inactive) | 47.3 µM (inactive) | 62.2 µM (inactive) | > 100 µM (inactive) | > 100 µM (inactive) | 89.5 µM (inactive) | > 100 µM (inactive)
6 | NC1=Nc2ccccc2Sc2nccn21 | 22.6 µM (inactive) | 23.9 µM (inactive) | 24.4 µM (inactive) | 24.6 µM (inactive) | 27 µM (inactive) | 16.1 µM (inactive) | 21 µM (inactive) | 15.1 µM (inactive) | 17.9 µM (inactive) | 25.2 | 18.6 µM (inactive) | 28.2 µM (inactive) | 30.5 µM (inactive) | 24.2 µM (inactive) | 23 µM (inactive) | 44.3 µM (inactive) | 17 µM (inactive) | 16.5 µM (inactive) | 27.4 µM (inactive)
7 | CC(=O)CCC[C@@H](C)[C@@H]1O[C@H]([C@@]2(C)CCC(=O)O2)C[C@H]2C(CSc3ccccc3)C(=O)O[C@@H]12 (stereo partly specified) | 19 µM (inactive) | 9.66 µM (inactive) | 65.2 µM (inactive) | 12.9 µM (inactive) | 3.3 µM (inactive) | 18.1 µM (inactive) | 15.3 µM (inactive) | 16.3 µM (inactive) | > 40.4 µM (inactive) | 17.3 | 13.8 µM (inactive) | 27.4 µM (inactive) | 17.7 µM (inactive) | 15.1 µM (inactive) | 13.8 µM (inactive) | 9.55 µM (inactive) | 13.3 µM (inactive) | 21.4 µM (inactive) | 12.7 µM (inactive)
8 | COC(=O)c1cc2c(o1)Sc1ccccc1NC2=O | > 100 µM (inactive) | > 100 µM (inactive) | 52.1 µM (inactive) | 87.1 µM (inactive) | > 100 µM (inactive) | > 100 µM (inactive) | > 100 µM (inactive) | > 100 µM (inactive) | 24.8 µM (inactive) | > 100 | > 100 µM (inactive) | > 100 µM (inactive) | > 100 µM (inactive) | > 100 µM (inactive) | > 100 µM (inactive) | > 100 µM (inactive) | > 100 µM (inactive) | > 100 µM (inactive) | > 100 µM (inactive)
9 | CC(C)(C)C1=CC(=CC=C2C=CN(CCCCCCCCCCCO)C=C2)C=C(C(C)(C)C)C1=O | 1.69 µM (inactive) | 0.815 µM (active) | 1.74 µM (inactive) | 1.26 µM (inactive) | 0.652 µM (active) | 1.63 µM (inactive) | 0.838 µM (active) | 1.83 µM (inactive) | 1.82 µM (inactive) | 2.6 | 1.01 µM (active) | 3.01 µM (inactive) | 2.96 µM (inactive) | 1.83 µM (inactive) | 1.87 µM (inactive) | 0.796 µM (active) | 1.75 µM (inactive) | 1.73 µM (inactive) | 2.48 µM (inactive)
10 | CCCCC[C@@H]1OCO[C@@]2(C)/C=C(C)\C=C/C(=O)O[C@H]([C@@H](C)[C@@H](O)[C@H](C)[C@@]3(O)C[C@@H](O[C@H]4C[C@@H](O)[C@H](O)[C@@H](C)O4)[C@H](C)[C@@H](C)O3)[C@@H](OC)/C=C\C=C(\C)C[C@@H]1[C@@H]2O (stereo in doubt) | < 0.005 µM (active) | < 0.005 µM (active) | 0.0573 µM (active) | < 0.005 µM (active) | < 0.005 µM (active) | 0.0239 µM (active) | < 0.005 µM (active) | < 0.005 µM (active) | < 0.005 µM (active) | 0.5 | < 0.005 µM (active) | < 0.005 µM (active) | 0.5 µM (active) | < 0.005 µM (active) | < 0.005 µM (active) | < 0.005 µM (active) | < 0.005 µM (active) | < 0.005 µM (active) | < 0.005 µM (active)
11 | C[C@H]1CC[C@]2(NC1)O[C@H]1C[C@H]3[C@@H]4CC[C@H]5C[C@@H](O[C@@H]6O[C@H](CO)[C@H](O[C@@H]7O[C@H](CO)[C@@H](O)[C@H](O[C@@H]8OC[C@@H](O)[C@H](O)[C@H]8O)[C@H]7O[C@@H]7O[C@H](CO)[C@@H](O)[C@H](O)[C@H]7O)[C@H](O)[C@H]6O)CC[C@]5(C)[C@H]4CC[C@]3(C)[C@H]1[C@@H]2C [TOMATINE] | 0.719 µM (active) | 0.729 µM (active) | 1.63 µM (inactive) | 1.29 µM (inactive) | 2.52 µM (inactive) | 1.3 µM (inactive) | 0.993 µM (active) | 1.99 µM (inactive) | 1.86 µM (inactive) | 2.48 | 2.03 µM (inactive) | 1.87 µM (inactive) | 1.9 µM (inactive) | 1.98 µM (inactive) | 0.558 µM (active) | 2.32 µM (inactive) | 1.43 µM (inactive) | 2.23 µM (inactive) | 0.753 µM (active)
12 | O=C(O)CN(CC(=O)O)C1CCCCC1N1CC(=O)OC(=O)C1 (stereo unspecified) | > 100 µM (inactive) | 49.1 µM (inactive) | > 100 µM (inactive) | > 100 µM (inactive) | > 100 µM (inactive) | > 100 µM (inactive) | 74.3 µM (inactive) | > 100 µM (inactive) | 17.2 µM (inactive) | 95.9 | > 100 µM (inactive) | > 100 µM (inactive) | > 100 µM (inactive) | > 100 µM (inactive) | > 100 µM (inactive) | 69.3 µM (inactive) | > 100 µM (inactive) | > 100 µM (inactive) | > 100 µM (inactive)
13 | O=c1[nH]nc(-c2ccccc2)n1/N=C/c1cccnc1 | 52.2 µM (inactive) | > 100 µM (inactive) | > 100 µM (inactive) | > 100 µM (inactive) | 69.5 µM (inactive) | 48.8 µM (inactive) | 95.5 µM (inactive) | 61.9 µM (inactive) | 50.6 µM (inactive) | 61.1 | > 100 µM (inactive) | 27 µM (inactive) | 69.8 µM (inactive) | 23.4 µM (inactive) | 34.9 µM (inactive) | 47.1 µM (inactive) | > 100 µM (inactive) | 57 µM (inactive) | 25.1 µM (inactive)
14 | Oc1ccc(Cl)cc1-c1cc(-c2ccccc2)nc(S)n1 | > 100 µM (inactive) | > 100 µM (inactive) | 22.6 µM (inactive) | 26.3 µM (inactive) | > 100 µM (inactive) | 30.5 µM (inactive) | > 100 µM (inactive) | 19.2 µM (inactive) | 21.5 µM (inactive) | 94 | > 100 µM (inactive) | 41.6 µM (inactive) | 97.9 µM (inactive) | 92.5 µM (inactive) | > 100 µM (inactive) | > 100 µM (inactive) | > 100 µM (inactive) | > 100 µM (inactive) | > 100 µM (inactive)
